Measured values from publication PMC3805573, “Methylglyoxal Evokes Pain by Stimulating TRPA1” (PLoS ONE, 2013).

Legend:
[1] = test system: TRPA1; assay: Whole cell voltage-clamp, TRPA1 CHO cells; format: cell-based; details: MG 0.5 mM (Fig. 1B)
Description: DRG neurons and TRPA1 CHO cells were studied under voltage-clamp conditions using an Axopatch 200B amplifier and pClamp 10.0 software (Molecular Devices, Sunnyvale, CA). Except where stated otherwise, whole cell recordings were performed at a holding potential of –60 mV using an extracellular solution with the composition described above for [Ca^2+]i measurements. Borosilicate glass pipettes (2–5 MΩ, 75–80% series resistance compensation) were filled with (in mM) 140 KCl, 1 CaCl2, 2 MgATP, 10 EGTA, and 10 HEPES buffered to pH 7.4 (KOH). Excised inside-out patches were recorded using a Ca^2+-free solution containing (in mM) 140 NaCl, 5 KCl, 1 MgCl2, 10 HEPES and 1 EGTA, pH 7.4 (NaOH) in the pipettes and perfused with 140 KCl, 2 MgATP, 1 EGTA, and 10 HEPES (pH 7.4). DRG neurons were studied using an intracellular solution containing (in mM) 140 CsCl, 1 CaCl2, 2 MgATP, 10 EGTA and 10 HEPES, pH 7.4 (CsOH). Drugs were applied by local microperfusion with a rapid solution changer (RSC-200, Biologic, Claix, France).

[2] = test system: human TRPA1 C621S, C641S or C665S; assay: [Ca2+]i-responses of human TRPA1 point mutants C621S, C641S, C665S; format: cell-based; details: human TRPA1 single point mutants vs wildtype
Description: (§1) Untransfected CHO cells and CHO cells expressing mouse or human TRPA1 were grown in MEM Glutamax or AQ medium supplemented with penicillin (100 U/ml), streptomycin (100 µg/ml), and FCS (10%). Plasmids encoding mutated TRPA1 channels were kindly provided by Dr. Ardem Patapoutian. All media, serum and antibiotics were from Invitrogen (Paisley, UK) or Sigma (Poole, UK).
(§2) Cells were loaded with 2 µM Fura-2 AM (Molecular Probes, Paisley, UK) in the presence of 1 mM probenecid for ∼1 hr. The experiments were performed in a physiological saline solution containing (in mM) 140 NaCl, 5 KCl, 10 glucose, 10 HEPES, 2 CaCl2, and 1 MgCl2, buffered to pH 7.4 with NaOH. Compounds were applied to cells by local continuous microperfusion of solution through a fine tube placed in close proximity of the cells studied. Images of a group of cells were captured every 2 sec using 340 and 380 nm excitation wavelengths with emission measured at 520 nm with a microscope based imaging system (PTI, New Jersey). […]
(§3) Changes in intracellular calcium ([Ca^2+]i) in response to agonists were determined in TRPA1 expressing CHO cells and MDCK cells using a Flexstation 3 (Molecular Devices). […] Basal emission ratios (340 nm/380 nm) were measured and changes in ratio determined at various times after compound addition.

[3] = molecular target: T1, mTRPA1 K712Q (Mus musculus, UniProt Q8BLA8, K712Q); assay: [Ca2+]i-responses of mTRPA1 K712Q in CHO cells; format: cell-based; details: MG 2 mM
T1 construct: expressed in transfected cells; host or cells: CHO cells
T1 sequence (Q8BLA8 whole entry K712Q): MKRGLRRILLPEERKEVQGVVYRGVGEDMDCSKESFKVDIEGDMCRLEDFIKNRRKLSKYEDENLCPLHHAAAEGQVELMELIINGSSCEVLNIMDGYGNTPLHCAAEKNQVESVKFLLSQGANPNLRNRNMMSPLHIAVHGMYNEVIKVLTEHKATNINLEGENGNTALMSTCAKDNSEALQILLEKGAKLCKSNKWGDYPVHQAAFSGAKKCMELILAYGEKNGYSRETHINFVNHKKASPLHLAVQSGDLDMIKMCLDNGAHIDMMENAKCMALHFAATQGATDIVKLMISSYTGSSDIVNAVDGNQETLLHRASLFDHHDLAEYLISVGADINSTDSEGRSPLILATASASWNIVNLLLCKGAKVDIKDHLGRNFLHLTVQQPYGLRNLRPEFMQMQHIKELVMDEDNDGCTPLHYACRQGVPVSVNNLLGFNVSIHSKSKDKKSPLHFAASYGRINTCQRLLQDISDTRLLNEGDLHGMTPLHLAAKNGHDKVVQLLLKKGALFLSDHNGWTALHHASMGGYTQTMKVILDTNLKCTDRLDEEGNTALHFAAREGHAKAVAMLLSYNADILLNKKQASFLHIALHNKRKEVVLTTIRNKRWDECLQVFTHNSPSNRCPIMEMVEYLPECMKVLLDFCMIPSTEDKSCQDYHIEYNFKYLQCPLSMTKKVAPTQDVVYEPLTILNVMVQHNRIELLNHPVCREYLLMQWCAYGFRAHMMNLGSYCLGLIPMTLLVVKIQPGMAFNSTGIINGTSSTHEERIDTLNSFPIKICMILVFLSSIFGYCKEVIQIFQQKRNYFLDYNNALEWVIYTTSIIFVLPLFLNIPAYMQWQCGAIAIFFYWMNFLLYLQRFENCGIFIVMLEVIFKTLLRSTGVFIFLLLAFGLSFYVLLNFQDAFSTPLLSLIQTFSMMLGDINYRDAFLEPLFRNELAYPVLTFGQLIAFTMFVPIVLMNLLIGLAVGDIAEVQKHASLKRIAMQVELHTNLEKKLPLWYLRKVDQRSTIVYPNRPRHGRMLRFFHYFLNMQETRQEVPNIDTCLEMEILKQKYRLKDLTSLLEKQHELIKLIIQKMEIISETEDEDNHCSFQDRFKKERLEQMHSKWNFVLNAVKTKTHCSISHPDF
Description: as §1
(§4) Cells were loaded with 2 µM Fura-2 AM (Molecular Probes, Paisley, UK) in the presence of 1 mM probenecid for ∼1 hr. The experiments were performed in a physiological saline solution containing (in mM) 140 NaCl, 5 KCl, 10 glucose, 10 HEPES, 2 CaCl2, and 1 MgCl2, buffered to pH 7.4 with NaOH. Compounds were applied to cells by local continuous microperfusion of solution through a fine tube placed in close proximity of the cells studied. Images of a group of cells were captured every 2 sec using 340 and 380 nm excitation wavelengths with emission measured at 520 nm with a microscope based imaging system (PTI, New Jersey). Analyses of emission intensity ratios at 340 nm/380 nm excitation (R, in individual cells) were performed using the ImageMaster suite of software.

[4] = test system: beta cells; assay: [Ca2+]i-responses in pancreatic beta cells; format: cell-based, mice; details: MG 0.5 mM (Fig. 7A)
Description: Mouse islets of Langerhans were isolated from the exocrine pancreas by collagenase digestion (1 mg/ml, type XI, Sigma, Poole, UK). Islets were dissociated by 15 min incubation in trypsin (0.5%, Sigma, Poole, UK) followed by trituration through a flame polished glass Pasteur pipette and the islet cells were seeded on glass cover slips.
as §4

[5] = test system: untransfected CHO cells; assay: [Ca2+]i in untransfected CHO cells; format: cell-based; details: untransfected CHO cells or absence of extracellular Ca2+ (data not shown)
Description: as §1, §2, §3

[6] = molecular target: T2, human TRPA1 (Homo sapiens, UniProt O75762); assay: [Ca2+]i-responses in CHO cells expressing human TRPA1; format: cell-based; details: CHO cells expressing human TRPA1, extracellular application; read-out: EC50, increases in [Ca2+]i
T2 construct: expressed in transfected cells; host or cells: CHO cells
T2 sequence (O75762 whole entry): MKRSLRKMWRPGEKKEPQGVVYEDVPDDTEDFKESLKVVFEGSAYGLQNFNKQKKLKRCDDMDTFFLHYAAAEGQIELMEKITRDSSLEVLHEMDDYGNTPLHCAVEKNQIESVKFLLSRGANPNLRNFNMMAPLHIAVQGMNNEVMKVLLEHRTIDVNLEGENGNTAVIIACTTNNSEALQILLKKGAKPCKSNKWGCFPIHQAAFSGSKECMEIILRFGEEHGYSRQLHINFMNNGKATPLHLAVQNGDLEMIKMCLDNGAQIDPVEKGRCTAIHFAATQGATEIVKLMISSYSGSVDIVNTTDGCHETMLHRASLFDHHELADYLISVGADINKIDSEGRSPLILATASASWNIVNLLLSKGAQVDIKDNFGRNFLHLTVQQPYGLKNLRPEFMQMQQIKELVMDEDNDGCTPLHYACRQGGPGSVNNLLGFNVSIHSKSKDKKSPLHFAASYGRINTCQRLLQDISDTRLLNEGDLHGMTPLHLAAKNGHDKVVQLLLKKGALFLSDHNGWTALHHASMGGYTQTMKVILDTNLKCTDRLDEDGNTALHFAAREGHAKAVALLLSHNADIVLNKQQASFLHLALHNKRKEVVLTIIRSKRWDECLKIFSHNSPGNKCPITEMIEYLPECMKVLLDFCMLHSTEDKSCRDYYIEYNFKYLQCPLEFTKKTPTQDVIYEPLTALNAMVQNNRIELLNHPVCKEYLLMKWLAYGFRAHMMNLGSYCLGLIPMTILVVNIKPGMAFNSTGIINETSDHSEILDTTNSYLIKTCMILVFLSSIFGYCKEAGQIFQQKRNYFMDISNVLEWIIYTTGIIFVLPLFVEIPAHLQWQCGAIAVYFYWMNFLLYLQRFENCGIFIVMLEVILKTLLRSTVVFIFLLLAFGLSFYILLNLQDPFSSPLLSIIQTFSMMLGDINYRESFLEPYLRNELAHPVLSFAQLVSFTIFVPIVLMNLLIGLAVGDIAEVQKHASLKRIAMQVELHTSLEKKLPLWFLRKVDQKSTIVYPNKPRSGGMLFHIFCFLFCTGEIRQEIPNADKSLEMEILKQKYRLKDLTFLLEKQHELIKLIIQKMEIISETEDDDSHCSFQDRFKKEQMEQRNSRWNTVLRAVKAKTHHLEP
Description: as §1, §2, §3

[7] = molecular target: T3, mouse TRPA1 (Mus musculus, UniProt Q8BLA8); assay: [Ca2+]i-responses in CHO cells expressing mouse TRPA1; format: cell-based; details: CHO cells expressing mouse TRPA1, extracellular application; read-out: EC50, increases in [Ca2+]i
T3 construct: expressed in transfected cells; host or cells: CHO cells
T3 sequence (Q8BLA8 whole entry): as the sequence (Q8BLA8 whole entry K712Q) above, with Q712K counted along it
Description: as §1, §2, §3

[8] = test system: DRG neurons; assay: [Ca2+]i-responses in cultured DRG neurons; format: cell-based, mice
Description: DRG neurons were prepared from adult male or female mice using methods described previously. Isolated neurons were maintained in MEM AQ (5.6 mM glucose) supplemented with 10% fetal bovine serum, 100 U/ml penicillin, 100 µg/ml streptomycin and 50 ng/ml NGF (Promega, Southampton, UK) for less than 24 hours before experimentation.
as §4

[9] = test system: Trpa1+/+ and Trpa1-/- mice; assay: Intraplantar injection, pain-related behaviors; format: in vivo; details: intraplantar 250 nmoles/paw
Description: Data shown are from male and female homozygote Trpa1^− ^/− and Trpa1 ^+/+. The Trpa1-null mice and wild-type littermates were bred from heterozygotic mice provided by Drs. Kelvin Kwan and David Corey (Harvard Medical School, Boston, MA).
Methylglyoxal (250 nmoles in 25 µl saline) was injected subcutaneously into the plantar surface of one of the hind paws using a 50 µl luer-syringe (Hamilton Co.) fitted with a 26-gauge x 3/8 inch intradermal needle. Immediately after injection, mice were placed inside a Perspex chamber and the duration of the pain-related behaviors (licking and biting or flinching and shaking of the injected paw) recorded using a digital stop-watch. Total pain response times over the first 2 minutes were used for analysis as the pain behaviors were largely confined to this period. The glyoxalase 1 inhibitor Sr-p-Bromobenzylglutathione cyclopentyl diester (50 mg/kg) was dissolved in 2% DMSO/20% Tween 80 in saline and administered by intraperitoneal (i.p.) injection (5 ml/kg).

Compound: CC(=O)C=O [MG, methylglyoxal]
- whole cell current [1]: produced inward currents
- effect of substitutions C621S, C641S, C665S on potency of MG [2]: None of these amino acid substitutions affected the potency of MG significantly
- amplitude of [Ca2+]i-responses in mTRPA1 K712Q compared to WT mTRPA1 [3]: significantly reduced
- [Ca2+]i-responses in beta cells [4]: evoked [Ca^2+]i-responses in a subpopulation of tolbutamide sensitive beta cells
- number of MG sensitive cells and response amplitude, Trpa1+/+ vs Trpa1-/- cultures [4]: similar
- effect on [Ca2+]i [5]: had no effect
- EC50 [6]: 700 ± 200 µM
- EC50 [7]: 900 ± 100 µM
- capsaicin-sensitive DRG neurons with [Ca2+]i-responses ([8]; neurons from Trpa1+/+ mice (240 of 333)): 72%
- DRG neurons with [Ca2+]i-responses ([8]; neurons from Trpa1-/- mice (1 of 322)): 0%
- pain-related behaviors during 2 min after injection [9]: induced a significant nociceptive response
